Source: ChEMBL document CHEMBL3046368, “Synthesis of benzothiazole derivatives and their biological evaluation as anticancer agents” (2012)
The source made the active and inactive calls. No cut-off for these calls is given here.

Legend:
[1] = biological target: T1, Ubiquitin-like modifier-activating enzyme 1 (Homo sapiens) (UniProt P22314); assay: Inhibition of ubiquitin displacement on His6-tagged E2 enzyme from His6-tagged UBA1 (unknown origin) at 10 uM after 1.5 hr by SDS-PAGE analysis
T1 sequence (whole entry): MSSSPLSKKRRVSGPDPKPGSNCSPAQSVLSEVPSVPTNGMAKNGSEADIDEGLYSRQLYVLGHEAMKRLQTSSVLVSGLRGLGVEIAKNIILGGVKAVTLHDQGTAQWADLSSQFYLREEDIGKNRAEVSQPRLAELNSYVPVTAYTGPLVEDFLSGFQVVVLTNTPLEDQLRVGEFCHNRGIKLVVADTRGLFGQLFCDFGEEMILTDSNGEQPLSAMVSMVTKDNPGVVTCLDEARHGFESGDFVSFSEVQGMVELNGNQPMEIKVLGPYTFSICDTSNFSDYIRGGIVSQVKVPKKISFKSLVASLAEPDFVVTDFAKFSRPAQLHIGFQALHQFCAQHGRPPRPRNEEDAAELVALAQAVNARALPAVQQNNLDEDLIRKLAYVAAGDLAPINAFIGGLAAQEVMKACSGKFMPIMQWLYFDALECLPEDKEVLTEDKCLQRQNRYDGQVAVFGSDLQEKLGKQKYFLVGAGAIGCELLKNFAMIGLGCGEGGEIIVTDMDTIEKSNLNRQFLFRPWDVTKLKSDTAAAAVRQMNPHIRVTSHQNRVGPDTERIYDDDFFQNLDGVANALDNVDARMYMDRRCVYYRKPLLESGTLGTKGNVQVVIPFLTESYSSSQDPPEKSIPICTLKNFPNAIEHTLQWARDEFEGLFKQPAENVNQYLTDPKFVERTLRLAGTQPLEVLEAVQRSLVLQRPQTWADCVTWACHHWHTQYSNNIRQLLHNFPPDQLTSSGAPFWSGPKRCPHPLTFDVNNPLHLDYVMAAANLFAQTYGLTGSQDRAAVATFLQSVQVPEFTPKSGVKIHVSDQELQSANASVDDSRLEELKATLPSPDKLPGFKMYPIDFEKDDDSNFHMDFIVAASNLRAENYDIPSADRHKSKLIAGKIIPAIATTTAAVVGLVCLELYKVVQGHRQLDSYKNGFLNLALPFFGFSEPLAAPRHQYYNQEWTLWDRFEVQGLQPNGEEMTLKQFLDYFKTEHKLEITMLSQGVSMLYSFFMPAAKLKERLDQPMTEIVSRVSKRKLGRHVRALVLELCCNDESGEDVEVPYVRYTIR

MDA-MB-468 = assay: Cytotoxicity against Homo sapiens (human) MDA-MB-468 cells after 48 hr by SRB assay; format: functional; settings: MDA-MB-468, 48 h
PC-3 = assay: Cytotoxicity against Homo sapiens (human) PC3 cells after 48 hr by SRB assay; format: functional; settings: PC-3, 48 h
TK-10 = assay: Cytotoxicity against Homo sapiens (human) TK10 cells after 48 hr by SRB assay; format: functional; settings: TK-10, 48 h
UO-31 = assay: Cytotoxicity against Homo sapiens (human) UO31 cells after 48 hr by SRB assay; format: functional; settings: UO-31, 48 h
RXF 393 = assay: Cytotoxicity against Homo sapiens (human) RXF393 cells after 48 hr by SRB assay; format: functional; settings: RXF 393, 48 h
CAKI-1 = assay: Cytotoxicity against Homo sapiens (human) Caki1 cells after 48 hr by SRB assay; format: functional; settings: CAKI-1, 48 h
SK-OV-3 = assay: Cytotoxicity against Homo sapiens (human) SKOV3 cells after 48 hr by SRB assay; format: functional; settings: SK-OV-3, 48 h
OVCAR-8 = assay: Cytotoxicity against Homo sapiens (human) OVCAR8 cells after 48 hr by SRB assay; format: functional; settings: OVCAR-8, 48 h
NCI/ADR-RES = assay: Cytotoxicity against Homo sapiens (human) NCI/ADR-RES cells after 48 hr by SRB assay; format: functional
OVCAR-4 = assay: Cytotoxicity against Homo sapiens (human) OVCAR4 cells after 48 hr by SRB assay; format: functional; settings: OVCAR-4, 48 h
IGROV-1 = assay: Cytotoxicity against Homo sapiens (human) IGROV1 cells after 48 hr by SRB assay; format: functional; settings: IGROV-1, 48 h
SK-MEL-5 = assay: Cytotoxicity against Homo sapiens (human) SK-MEL-5 cells after 48 hr by SRB assay; format: functional; settings: SK-MEL-5, 48 h
SK-MEL-2 = assay: Cytotoxicity against Homo sapiens (human) SK-MEL-2 cells after 48 hr by SRB assay; format: functional; settings: SK-MEL-2, 48 h
MDA-MB-435 = assay: Cytotoxicity against Homo sapiens (human) MDA-MB-435 cells after 48 hr by SRB assay; format: functional; settings: MDA-MB-435, 48 h
Malme-3M = assay: Cytotoxicity against Homo sapiens (human) MALME-3M cells after 48 hr by SRB assay; format: functional
SF-295 = assay: Cytotoxicity against Homo sapiens (human) SF295 cells after 48 hr by SRB assay; format: functional; settings: SF-295, 48 h
HT-29 = assay: Cytotoxicity against Homo sapiens (human) HT-29 cells after 48 hr by SRB assay; format: functional; settings: HT-29, 48 h
HCT-116 = assay: Cytotoxicity against Homo sapiens (human) HCT116 cells after 48 hr by SRB assay; format: functional; settings: HCT-116, 48 h
HCC 2998 = assay: Cytotoxicity against Homo sapiens (human) HCC2998 cells after 48 hr by SRB assay; format: functional; settings: HCC 2998, 48 h
NCI-H522 = assay: Cytotoxicity against Homo sapiens (human) NCI-H522 cells after 48 hr by SRB assay; format: functional; settings: NCI-H522, 48 h
HOP-92 = assay: Cytotoxicity against Homo sapiens (human) HOP92 cells after 48 hr by SRB assay; format: functional; settings: HOP-92, 48 h
MOLT-4 = assay: Cytotoxicity against Homo sapiens (human) MOLT4 cells after 48 hr by SRB assay; format: functional; settings: MOLT-4, 48 h
[2] = Cytotoxicity against Homo sapiens (human) ovarian cancer cells assessed as cell growth at 10^-5 M after 48 hr by SRB assay relative to control; format: functional; settings: Cancer cell lines, read-out: Activity
[3] = Cytotoxicity against Homo sapiens (human) melanoma cells assessed as cell growth at 10^-5 M after 48 hr by SRB assay relative to control; format: functional; settings: read-out: Activity
[4] = Cytotoxicity against Homo sapiens (human) CNSC cells assessed as cell growth at 10^-5 M after 48 hr by SRB assay relative to control; format: functional; settings: read-out: Activity
[5] = Cytotoxicity against Homo sapiens (human) colon cancer cells assessed as cell growth at 10^-5 M after 48 hr by SRB assay relative to control; format: functional; settings: Cancer cell lines, read-out: Activity
[6] = Cytotoxicity against Homo sapiens (human) NSCLC cells assessed as cell growth at 10^-5 M after 48 hr by SRB assay relative to control; format: functional; settings: read-out: Activity
[7] = Cytotoxicity against Homo sapiens (human) leukemia cells assessed as cell growth at 10^-5 M after 48 hr by SRB assay relative to control; format: functional; settings: read-out: Activity
HOP-62 = assay: Cytotoxicity against Homo sapiens (human) HOP62 cells after 48 hr by SRB assay; format: functional; settings: HOP-62, 48 h

| SMILES | inhibition [1] | GI50 (MDA-MB-468) | GI50 (PC-3) | GI50 (TK-10) | GI50 (UO-31) | GI50 (RXF 393) | GI50 (CAKI-1) | GI50 (SK-OV-3) | GI50 (OVCAR-8) | GI50 (NCI/ADR-RES) | GI50 (OVCAR-4) | GI50 (IGROV-1) | GI50 (SK-MEL-5) | GI50 (SK-MEL-2) | GI50 (MDA-MB-435) | GI50 (Malme-3M) | GI50 (SF-295) | GI50 (HT-29) | GI50 (HCT-116) | GI50 (HCC 2998) | also measured |
| --- | --- | --- | --- | --- | --- | --- | --- | --- | --- | --- | --- | --- | --- | --- | --- | --- | --- | --- | --- | --- | --- |
| N#Cc1ccc(NC(=O)Nc2nc3ccc(OC(F)(F)F)cc3s2)cc1 | inactive | 457 nM | 1350 nM | 1230 nM | 1660 nM | 1860 nM | 1580 nM | 2630 nM | 2000 nM | 1550 nM | 1620 nM | 2000 nM | 1150 nM | 1780 nM | 1410 nM | 851 nM | 1170 nM | 2090 nM | 550 nM | 1290 nM | GI50 (NCI-H522): 427 nM; GI50 (HOP-92): 324 nM; GI50 (MOLT-4): 1860 nM; growth at 10 µM [2]: 8.95%; growth at 10 µM [3]: -9.77%; growth at 10 µM [4]: 2.6%; growth at 10 µM [5]: -11.2%; growth at 10 µM [6]: -6.18%; growth at 10 µM [7]: -17.4%; GI50 (HOP-62): 2510 nM |
| O=C(Nc1ccc(F)cc1)Nc1nc2ccc(OC(F)(F)F)cc2s1 | inactive | 2340 nM | 2820 nM | 4070 nM | 3470 nM | 2690 nM | 2290 nM | 2570 nM | 4270 nM | 3390 nM | 2950 nM | 3890 nM | 2450 nM | 3090 nM | 2950 nM | 2950 nM | 2570 nM | 3890 nM | 2950 nM | 3890 nM | GI50 (NCI-H522): 3160 nM; GI50 (HOP-92): 3890 nM; GI50 (MOLT-4): 3090 nM; growth at 10 µM [2]: 12.9%; growth at 10 µM [3]: 12%; growth at 10 µM [4]: 21.1%; growth at 10 µM [5]: 0.24%; growth at 10 µM [6]: 5.63%; growth at 10 µM [7]: 17.3%; GI50 (HOP-62): 3800 nM |
